US8143242B2, “Malonamide derivatives with antithrombotic activity” (Sanofi-Aventis, priority 2007, dated 2012)
Structures can show the parent of a compound that is named as a salt.

Biological target: T1, human factor VIIa and TF (factor VIIa/tissue factor) (Homo sapiens, UniProt P08709)
T1 construct: human factor VIIa and TF
Experiment: Factor VIIa (FVIIa) chromogenic assay
Type: biochemical
Details: chromogenic substrate S-2288 500 μM; 5 nM FVIIa, 10 nM TF; 25° C.; 15 minute preincubation; pH 8.15
Experimental: The ability of the compounds of the formulae I and Ia to inhibit factor VIIa or other enzymes like factor Xa, thrombin, plasmin, or trypsin can be assessed by determining the concentration of the compound of the formulae I and Ia that inhibits enzyme activity by 50%, i. e. the IC50 value, which is related to the inhibition constant Ki. Purified enzymes are used in chromogenic assays. The concentration of inhibitor that causes a 50% decrease in the rate of substrate hydrolysis is determined by linear regression after plotting the relative rates of hydrolysis (compared to the uninhibited control) versus the log of the concentration of the compound of formulae I and Ia. For calculating the inhibition constant Ki, the IC50 value is corrected for competition with substrate using the formula Ki=IC50/{1+(substrate concentration/Km)} wherein Km is the Michaelis-Menten constant (Chen and Prusoff, Biochem. Pharmacol. 22 (1973), 3099-3108; I. H. Segal, Enzyme Kinetics, 1975, John Wiley & Sons, New York, 100-125; which are incorporated herein by reference).
Factor VIIa (FVIIa) Assay
The inhibitory activity (expressed as inhibition constant Ki(FVIIa)) of the compounds of formulae I and Ia towards factor VIIa/tissue factor activity was determined using a chromogenic assay essentially as described previously (J. A. Ostrem et al., Biochemistry 37 (1998) 1053-1059 which is incorporated herein by reference). Kinetic assays were conducted at 25° C. in half-area microtiter plates (Costar Corp., Cambridge, Ma.) using a kinetic plate reader (Molecular Devices Spectramax 250). A typical assay consisted of 25 μl human factor VIIa and TF (5 nM and 10 nM, respective final concentration) combined with 40 μl of inhibitor dilutions in 10% DMSO/TBS-PEG buffer (50 mM Tris, 15 mM NaCl, 5 mM CaCl2, 0.05% PEG 8000, pH 8.15). Following a 15 minute preincubation period, the assay was initiated by the addition of 35 μl of the chromogenic substrate S-2288 (D-Ile-Pro-Arg-p-nitroanilide, Pharmacia Hepar Inc., 500 μM final concentration).

T1 sequence (P08709 213-466 limits assumed): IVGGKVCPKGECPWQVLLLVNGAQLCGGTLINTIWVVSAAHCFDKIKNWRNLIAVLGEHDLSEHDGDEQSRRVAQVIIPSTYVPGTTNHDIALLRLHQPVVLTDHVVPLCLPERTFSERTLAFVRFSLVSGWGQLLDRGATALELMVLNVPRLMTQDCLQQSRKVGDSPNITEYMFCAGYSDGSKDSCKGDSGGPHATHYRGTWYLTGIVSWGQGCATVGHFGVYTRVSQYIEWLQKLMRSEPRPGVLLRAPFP
T1 sequence (P08709 61-212 limits assumed): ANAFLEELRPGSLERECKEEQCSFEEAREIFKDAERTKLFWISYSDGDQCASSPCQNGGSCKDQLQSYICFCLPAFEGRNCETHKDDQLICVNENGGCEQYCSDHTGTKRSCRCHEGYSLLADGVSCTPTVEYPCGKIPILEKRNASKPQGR
T1 sequence (P13726 33-295 partner): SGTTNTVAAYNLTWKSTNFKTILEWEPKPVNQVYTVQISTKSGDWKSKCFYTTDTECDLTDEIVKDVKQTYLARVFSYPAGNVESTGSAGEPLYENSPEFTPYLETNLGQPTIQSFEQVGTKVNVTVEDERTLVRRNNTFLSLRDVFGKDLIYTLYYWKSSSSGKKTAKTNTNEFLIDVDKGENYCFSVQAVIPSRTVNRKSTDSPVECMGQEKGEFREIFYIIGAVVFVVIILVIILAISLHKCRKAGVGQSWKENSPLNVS

Compound	Ki
C[C@H](NC(=O)CC(=O)Nc1ccc(C(=N)N)cc1)c1ccc(Oc2cncc(C(=O)O)c2)c(Br)c1 [Example 1, 5-(2-Bromo-4-{(S)-1-[2-(4-carbamimidoyl-phenylcarbamoyl)-acetylamino]-ethyl}-phenoxy)-nicotinic acid*acetic acid salt]	41 nM
CC(NC(=O)CC(=O)Nc1ccc(C(=N)N)cc1)c1ccc(Oc2cccc(CO)c2)c(Br)c1 (centres unmarked) [Example 2, N-{1-[3-Bromo-4-(3-hydroxymethyl-phenoxy)-phenyl]-ethyl}-N′-(4-carbamimidoyl-phenyl)-malonamide*trifluoro-acetic acid salt]	171 nM
CC(NC(=O)CC(=O)Nc1ccc(C(=N)N)cc1)c1ccc(OCCCCCC(=O)O)c(Br)c1 (centres unmarked) [Example 3]	169 nM
COCCOc1ccc([C@H](C)NC(=O)CC(=O)Nc2ccc(C(=N)N)cc2)cc1C(F)(F)F [Example 10, N-(4-Carbamimidoyl-phenyl)-N′—{(S)-1-[4-(2-methoxy-ethoxy)-3-trifluoromethyl-phenyl]-ethyl}-malonamide]	24 nM
CC(C)OCCOc1ccc(C(C)NC(=O)CC(=O)Nc2ccc(C(=N)N)cc2)cc1C(F)(F)F (centres unmarked) [Example 24]	61 nM
C[C@H](NC(=O)CC(=O)Nc1ccc(C(=N)N)cc1)c1ccc(OCCO)c(C(F)(F)F)c1 [Example 26]	47 nM
CC(NC(=O)CC(=O)Nc1ccc(C(=N)N)cc1)c1ccc(OCCCN2CCCC2=O)c(C(F)(F)F)c1 (centres unmarked) [Example 44]	78 nM
CC(NC(=O)CC(=O)Nc1ccc(C(=N)N)cc1)c1ccc(OCCCCO)c(C(F)(F)F)c1 (centres unmarked) [Example 51]	122 nM
Cc1ncsc1CCOc1ccc(C(C)NC(=O)CC(=O)Nc2ccc(C(=N)N)cc2)cc1Br (centres unmarked) [Example 61]	87 nM
COCCN(C)S(=O)(=O)c1ccc([C@H](C)NC(=O)CC(=O)Nc2ccc(C(=N)N)cc2)cc1C(F)(F)F [Example 76]	27 nM
C[C@H](NC(=O)CC(=O)Nc1ccc(C(=N)N)cc1)c1ccc(S(=O)(=O)N2CCOC[C@@H]2C)c(C(F)(F)F)c1 [Example 112]	29 nM
N-(4-Carbamimidoyl-phenyl)-N′—[(S)-1-(3-trifluoromethanesulfonyl-phenyl)-ethyl]-malonamide*trifluoro-acetic acid salt [Example 77]	99 nM

The remaining compounds from weak to strong by Ki, led by results:

Ki	Compound
588 nM	CC(NC(=O)CC(=O)Nc1ccc(C(=N)N)cc1)c1ccc(S(=O)(=O)Cc2ccncc2)c(Cl)c1 (centres unmarked) [Example 67]
87 nM	CC(NC(=O)CC(=O)Nc1ccc(C(=N)N)cc1)c1ccc(OCc2ccoc2)c(Br)c1 (centres unmarked) [Example 52]
80 nM	COC1CCC(Oc2ccc(C(C)NC(=O)CC(=O)Nc3ccc(C(=N)N)cc3)cc2C(F)(F)F)CC1 (centres unmarked) [Example 50]
55 nM	CC(NC(=O)CC(=O)Nc1ccc(C(=N)N)cc1)c1ccc(S(=O)(=O)N2CCOCC2)c(C(F)(F)F)c1 (centres unmarked) [Example 28, N-(4-Carbamimidoyl-phenyl)-N′-{1-[4-(morpholine-4-sulfonyl)-3-trifluoromethyl-phenyl]-ethyl}-malonamide*trifluoro-acetic acid salt]
37 nM	COCCNS(=O)(=O)c1ccc([C@H](C)NC(=O)CC(=O)Nc2ccc(C(=N)N)cc2)cc1C(F)(F)F [Example 75]
36 nM	CC(NC(=O)CC(=O)Nc1ccc(C(=N)N)cc1)c1ccc(S(=O)(=O)c2ccncc2)c(C(F)(F)F)c1 (centres unmarked) [Example 74, N-(4-Carbamimidoyl-phenyl)-N′-{1-[4-(pyridine-4-sulfonyl)-3-trifluoromethyl-phenyl]-ethyl}-malonamide*trifluoro-acetic acid salt]
30 nM	C[C@H](NC(=O)CC(=O)Nc1ccc(C(=N)N)cc1)c1ccc(S(=O)(=O)N2CCOCC2)c(Br)c1 [Example 117]
7 nM	C[C@H](NC(=O)CC(=O)Nc1ccc(C(=N)N)cc1)c1ccc(OC2CCOCC2)c(-c2ccc(Cl)s2)c1 [Example 113]
